Like-named read-outs stand apart in the source and are kept apart here.
Target: T1, CaV2.2 (Homo sapiens, UniProt Q00975)
T1 construct: expressed in transfected cells; host or cells: HEK293
Assay: VIPR optical membrane potential assay with electrical stimulation
Format: cell-based
Protocol: Antagonist properties of test compounds were assessed as follows. Cells expressing the CaV of interest were placed into microtiter plates. After an incubation period, the cells were stained with fluorescent dyes sensitive to the transmembrane potential. The test compounds were added to the microtiter plate. The cells were stimulated with electrical means to evoke a CaV dependent membrane potential change from unblocked channels, which was detected and measured with trans-membrane potential-sensitive dyes. Antagonists were detected as a decreased membrane potential response to the stimulus.
VIPR® Optical Membrane Potential Assay Method with Electrical Stimulation
The following is an example of how CaV2.2 inhibition activity is measured using the optical membrane potential method. Other subtypes are performed in an analogous mode in a cell line expressing the CaV of interest.
HEK293 cells stably expressing CaV2.2 are plated into 96-well microtiter plates. After an appropriate incubation period, the cells are stained with the voltage sensitive dyes CC2-DMPE/DiSBAC2(3) as follows.
2×CC2-DMPE=20 μM CC2-DMPE: 10 mM CC2-DMPE is vortexed with an equivalent volume of 10% Pluronic, followed by vortexing in required amount of HBSS containing 10 mM HEPES. Each cell plate will require 5 mL of 2×CC2-DMPE. 50 μL of 2×CC2-DMPE is added to wells containing washed cells, resulting in a 10 μM final staining concentration. The cells are stained for 30 minutes in the dark at RT.
Vortex in required amount of Bath X with beta-cyclodextrin. Each 96 well cell plate will require 5 ml of 2×CC2DMPE. Wash plate with ELx405 with Bath X, leaving a residual volume of 50 μL/well. Add 50 μL of 2×CC2DMPE & DISBAC6(3) to each well. Stain for 30 minutes in the dark at RT.
Allow solution to sit for 10 minutes. Slowly mix in 370 mM BaCl2. This solution can be used to solvate compound plates. Note that compound plates are made at 1.5× drug concentration and not the usual 2×. Wash CC2 stained plate, again, leaving residual volume of 50 pt. Add 100 uL/well of the AY17 solution. Stain for 15 minutes in the dark at RT. Run plate on the optical reader.
The instrument comprises a microtiter plate handler, an optical system for exciting the coumarin dye while simultaneously recording the coumarin and oxonol emissions, a waveform generator, a current- or voltage-controlled amplifier, and a device for inserting electrodes in well. Under integrated computer control, this instrument passes user-programmed electrical stimulus protocols to cells within the wells of the microtiter plate.
Insert or use electrodes into each well to be assayed.
Use the current-controlled amplifier to deliver stimulation wave pulses for 3-5 s. Two seconds of pre-stimulus recording are performed to obtain the un-stimulated intensities. Five seconds of post-stimulation recording are performed to examine the relaxation to the resting state.
Data are analyzed and reported as normalized ratios of background-subtracted emission intensities measured in the 460 nm and 580 nm channels. Background intensities are then subtracted from each assay channel. Background intensities are obtained by measuring the emission intensities during the same time periods from identically treated assay wells in which there are no cells. The response as a function of time is then reported as the ratios obtained using the following formula: […]
The data is further reduced by calculating the initial (Ri) and final (Rf) ratios. These are the average ratio values during part or all of the pre-stimulation period, and during sample points during the stimulation period. The response to the stimulus R=Rf/Ri is then calculated.
Control responses are obtained by performing assays in the presence of a compound with the desired properties (positive control), such as mibefradil, and in the absence of pharmacological agents (negative control). Responses to the negative (N) and positive (P) controls are calculated as above.

[1] = Table 3, biological assay data, read-out: IC50

T1 sequence (Q00975 whole entry): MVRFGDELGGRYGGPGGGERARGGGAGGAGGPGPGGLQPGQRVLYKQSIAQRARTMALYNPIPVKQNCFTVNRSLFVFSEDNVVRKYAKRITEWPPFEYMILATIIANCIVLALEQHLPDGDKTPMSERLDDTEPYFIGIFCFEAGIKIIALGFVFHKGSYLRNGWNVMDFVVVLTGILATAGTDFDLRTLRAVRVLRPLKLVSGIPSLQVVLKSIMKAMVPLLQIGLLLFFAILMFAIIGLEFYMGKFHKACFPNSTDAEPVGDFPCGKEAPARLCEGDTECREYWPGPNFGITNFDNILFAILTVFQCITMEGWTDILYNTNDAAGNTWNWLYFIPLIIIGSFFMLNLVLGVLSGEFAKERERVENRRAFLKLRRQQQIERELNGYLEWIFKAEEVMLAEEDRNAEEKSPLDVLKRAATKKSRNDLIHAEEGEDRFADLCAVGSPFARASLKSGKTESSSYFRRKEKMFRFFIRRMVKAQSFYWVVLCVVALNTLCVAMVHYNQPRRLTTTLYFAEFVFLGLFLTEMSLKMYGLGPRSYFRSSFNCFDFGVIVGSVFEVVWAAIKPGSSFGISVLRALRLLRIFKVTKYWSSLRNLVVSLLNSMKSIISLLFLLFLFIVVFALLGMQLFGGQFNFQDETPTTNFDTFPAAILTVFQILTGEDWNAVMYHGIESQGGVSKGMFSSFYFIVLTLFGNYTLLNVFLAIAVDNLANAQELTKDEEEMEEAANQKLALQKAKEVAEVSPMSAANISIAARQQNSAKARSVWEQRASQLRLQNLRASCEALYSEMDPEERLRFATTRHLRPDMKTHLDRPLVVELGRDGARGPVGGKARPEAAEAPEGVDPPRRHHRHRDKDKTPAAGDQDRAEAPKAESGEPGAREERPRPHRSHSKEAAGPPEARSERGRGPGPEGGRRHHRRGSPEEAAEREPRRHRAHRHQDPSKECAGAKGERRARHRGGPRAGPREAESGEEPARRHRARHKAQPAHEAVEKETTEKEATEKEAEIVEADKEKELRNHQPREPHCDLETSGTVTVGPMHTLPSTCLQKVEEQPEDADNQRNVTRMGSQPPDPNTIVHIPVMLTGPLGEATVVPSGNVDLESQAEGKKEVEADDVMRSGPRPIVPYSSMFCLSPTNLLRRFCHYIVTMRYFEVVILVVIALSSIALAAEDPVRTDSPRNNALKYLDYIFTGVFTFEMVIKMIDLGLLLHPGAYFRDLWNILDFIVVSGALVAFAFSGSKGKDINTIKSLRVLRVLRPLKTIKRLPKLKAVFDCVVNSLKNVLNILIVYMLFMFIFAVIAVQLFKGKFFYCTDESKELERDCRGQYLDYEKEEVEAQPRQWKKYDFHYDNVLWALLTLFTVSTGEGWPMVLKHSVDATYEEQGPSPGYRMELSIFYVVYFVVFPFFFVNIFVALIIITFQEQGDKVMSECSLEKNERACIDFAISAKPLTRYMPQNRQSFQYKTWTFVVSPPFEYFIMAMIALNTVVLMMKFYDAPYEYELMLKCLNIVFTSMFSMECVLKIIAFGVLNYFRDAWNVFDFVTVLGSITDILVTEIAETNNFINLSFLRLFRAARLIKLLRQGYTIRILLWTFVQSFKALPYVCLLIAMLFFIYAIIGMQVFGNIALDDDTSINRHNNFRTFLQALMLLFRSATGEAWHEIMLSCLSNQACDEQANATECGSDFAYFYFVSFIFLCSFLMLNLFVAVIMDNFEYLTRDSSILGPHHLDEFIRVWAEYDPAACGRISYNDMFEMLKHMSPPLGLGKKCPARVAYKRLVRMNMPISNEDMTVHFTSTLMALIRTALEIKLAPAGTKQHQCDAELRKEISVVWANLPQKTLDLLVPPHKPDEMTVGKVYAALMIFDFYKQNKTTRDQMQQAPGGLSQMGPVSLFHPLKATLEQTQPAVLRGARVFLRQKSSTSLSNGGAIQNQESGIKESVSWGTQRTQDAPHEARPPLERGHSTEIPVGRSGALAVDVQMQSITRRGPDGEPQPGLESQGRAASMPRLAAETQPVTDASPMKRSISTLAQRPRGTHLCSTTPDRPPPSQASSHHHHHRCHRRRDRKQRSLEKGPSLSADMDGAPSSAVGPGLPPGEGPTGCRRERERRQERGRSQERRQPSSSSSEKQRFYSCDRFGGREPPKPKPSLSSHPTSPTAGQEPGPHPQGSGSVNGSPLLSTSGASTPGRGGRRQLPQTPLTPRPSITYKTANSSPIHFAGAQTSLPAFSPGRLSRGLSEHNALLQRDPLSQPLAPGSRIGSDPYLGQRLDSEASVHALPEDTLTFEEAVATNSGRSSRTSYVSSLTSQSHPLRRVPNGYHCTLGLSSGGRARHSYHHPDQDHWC
T1 sequence (P54284 whole entry partner): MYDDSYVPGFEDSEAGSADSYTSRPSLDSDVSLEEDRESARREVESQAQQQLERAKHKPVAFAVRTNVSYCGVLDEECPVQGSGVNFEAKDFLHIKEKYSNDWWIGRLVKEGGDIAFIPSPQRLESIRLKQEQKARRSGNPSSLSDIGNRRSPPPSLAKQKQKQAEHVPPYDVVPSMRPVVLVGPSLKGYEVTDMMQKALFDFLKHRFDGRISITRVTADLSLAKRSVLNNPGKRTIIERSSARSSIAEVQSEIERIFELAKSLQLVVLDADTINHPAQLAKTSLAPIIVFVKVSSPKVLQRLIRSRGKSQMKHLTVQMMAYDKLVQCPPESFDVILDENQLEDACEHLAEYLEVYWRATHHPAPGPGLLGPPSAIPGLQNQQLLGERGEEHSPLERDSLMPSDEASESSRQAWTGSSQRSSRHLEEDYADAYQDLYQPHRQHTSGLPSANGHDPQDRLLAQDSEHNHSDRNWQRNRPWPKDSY
T1 sequence (P54289 25-946 partner limits assumed): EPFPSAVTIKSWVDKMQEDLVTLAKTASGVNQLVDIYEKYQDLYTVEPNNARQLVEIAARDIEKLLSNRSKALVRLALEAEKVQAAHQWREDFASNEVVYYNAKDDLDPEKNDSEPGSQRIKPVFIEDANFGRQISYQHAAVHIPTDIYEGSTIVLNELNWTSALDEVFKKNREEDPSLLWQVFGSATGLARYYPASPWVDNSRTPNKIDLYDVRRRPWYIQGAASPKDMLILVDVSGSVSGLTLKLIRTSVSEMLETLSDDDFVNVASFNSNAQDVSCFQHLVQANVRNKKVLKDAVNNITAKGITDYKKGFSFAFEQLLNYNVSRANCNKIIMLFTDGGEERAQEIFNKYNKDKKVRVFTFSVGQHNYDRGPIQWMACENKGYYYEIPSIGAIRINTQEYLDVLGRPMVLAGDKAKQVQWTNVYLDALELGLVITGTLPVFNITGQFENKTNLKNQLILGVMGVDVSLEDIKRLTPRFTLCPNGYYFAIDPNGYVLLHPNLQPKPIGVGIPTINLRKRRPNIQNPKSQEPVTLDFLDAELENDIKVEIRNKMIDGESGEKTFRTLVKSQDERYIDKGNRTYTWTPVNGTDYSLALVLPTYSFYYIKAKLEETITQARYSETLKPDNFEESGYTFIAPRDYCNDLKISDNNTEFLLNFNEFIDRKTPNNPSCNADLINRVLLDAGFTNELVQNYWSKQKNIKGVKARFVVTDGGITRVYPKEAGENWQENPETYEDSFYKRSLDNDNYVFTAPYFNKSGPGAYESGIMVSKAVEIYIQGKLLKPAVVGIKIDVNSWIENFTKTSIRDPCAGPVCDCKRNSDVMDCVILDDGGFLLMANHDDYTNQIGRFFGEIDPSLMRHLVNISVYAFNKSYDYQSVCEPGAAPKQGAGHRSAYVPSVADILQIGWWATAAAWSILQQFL
T1 sequence (P54289 947-1103 partner limits assumed): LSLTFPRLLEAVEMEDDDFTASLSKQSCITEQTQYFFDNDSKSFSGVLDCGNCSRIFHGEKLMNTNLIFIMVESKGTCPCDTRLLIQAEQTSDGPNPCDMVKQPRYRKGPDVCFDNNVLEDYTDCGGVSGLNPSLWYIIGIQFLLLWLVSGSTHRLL

Row | SMILES | IC50 [1] | IC50
1 | CCN(CC)C(=O)c1cc2cc(S(=O)(=O)N3CCCCCC3)ccc2o1 [compound 1] | 5 to 20 µM | 
2 | CC1CC(C)CN(S(=O)(=O)c2ccc3oc(C(=O)NCCc4ccccc4)cc3c2)C1 (stereo not drawn) [compound 2] | < 5 µM | 
3 | Cc1c(C(=O)N2CCN(C)CC2)[nH]c2ccc(S(=O)(=O)N3CCCCCC3)cc12 [compound 3] | < 20 µM | 
4 | Cc1c(C(=O)N2CCC(C)CC2)oc2ccc(S(=O)(=O)N3CCC4(CC3)OCCO4)cc12 [compound 4] | 5 to 20 µM | 
5 | O=C(NCCCc1ccccc1)c1cc2cc(S(=O)(=O)N3CCCCCC3)ccc2[nH]1 [compound 5] | < 5 µM | 
6 | Cc1c(C(=O)NCCC2CCOCC2)oc2ccc(S(=O)(=O)N3CC(C)CC(C)C3)cc12 (stereo not drawn) [compound 6] | < 5 µM | 
7 | CCN(CC)C(=O)c1[nH]c2ccc(S(=O)(=O)N3CC(C)CC(C)C3)cc2c1C (stereo not drawn) [compound 7] | < 5 µM | 
8 | CC1CCN(S(=O)(=O)c2ccc3[nH]c(C(=O)NCCC4CCOCC4)cc3c2)CC1 [compound 8] | < 5 µM | 
9 | Cc1c(C(=O)NC2CCCCC2)oc2ccc(S(=O)(=O)N3CCCC(C)C3)cc12 (stereo not drawn) [compound 9] | < 5 µM | 
10 | CNC(=O)c1oc2ccc(S(=O)(=O)N3CCC(C)CC3)cc2c1C [compound 10] | 5 to 20 µM | 
11 | CC1CCN(S(=O)(=O)c2ccc3[nH]c(CN4CCCCC4)cc3c2)CC1 [compound 11] | < 5 µM | 
12 | Cc1c(C(=O)N2CCCC2)oc2ccc(S(=O)(=O)N3CCC(C)CC3)cc12 [compound 12] | 5 to 20 µM | 
13 | Cc1c(C(=O)NCCc2ccccc2)[nH]c2ccc(S(=O)(=O)N3CC(C)CC(C)C3)cc12 (stereo not drawn) [compound 13] | < 5 µM | 
14 | Cc1c(C(=O)N2CCCCC2C)oc2ccc(S(=O)(=O)N3CCOCC3)cc12 (stereo not drawn) [compound 14] | < 20 µM | 
15 | CCN(CC)C(=O)c1oc2ccc(S(=O)(=O)N3CCC(C)CC3)cc2c1C [compound 15] | 5 to 20 µM | 
16 | CC1CC(C)CN(S(=O)(=O)c2ccc3[nH]c(C(=O)NCC4CCCO4)cc3c2)C1 (stereo not drawn) [compound 16] | < 5 µM | 
17 | CC1CC(C)CN(C(=O)c2cc3cc(S(=O)(=O)N4CCCCCC4)ccc3[nH]2)C1 (stereo not drawn) [compound 17] | 5 to 20 µM | 
18 | Cc1c(C(=O)N2CCCC2)oc2ccc(S(=O)(=O)N3CCCCC3)cc12 [compound 18] | 5 to 20 µM | 
19 | CCOC(=O)C1CCN(C(=O)c2oc3ccc(S(=O)(=O)N4CCCCCC4)cc3c2C)CC1 [compound 19] | < 5 µM | 
20 | Cc1c(C(=O)NC2CC2)oc2ccc(S(=O)(=O)Nc3ncccn3)cc12 [compound 20] | < 20 µM | 

Row | SMILES | IC50 [1] | IC50
21 | Cc1c(C(=O)NC(C)C)oc2ccc(S(=O)(=O)N3CC(C)CC(C)C3)cc12 (stereo not drawn) [compound 21] | < 5 µM | 
22 | CNC(=O)c1oc2ccc(S(=O)(=O)N3CCOCC3)cc2c1C [compound 22] | < 20 µM | 
23 | O=C(NCCC1CCOCC1)c1cc2cc(S(=O)(=O)N3CCCCCC3)ccc2o1 [compound 23] | < 5 µM | 
24 | Cc1c(C(=O)NC2CC2)oc2ccc(S(=O)(=O)N(CCN(C)C)Cc3ccccc3)cc12 [compound 24] | < 20 µM | 
25 | Cc1c(C(=O)NC2CC2)oc2ccc(S(=O)(=O)NCCN3CCCCC3)cc12 [compound 25] | < 20 µM | 
26 | Cc1c(C(=O)N2CCCC2)oc2ccc(S(=O)(=O)N3CCOCC3)cc12 [compound 26] | < 20 µM | 
27 | Cc1c(C(=O)NCCC2CCOCC2)[nH]c2ccc(S(=O)(=O)N3CCC(C)CC3)cc12 [compound 27] | 5 to 20 µM | 
28 | Cc1c(C(=O)NC(C)c2ccccc2)oc2ccc(S(=O)(=O)N3CCCC3)cc12 (stereo not drawn) [compound 28] | < 20 µM | 
29 | CC1CC(C)CN(C(=O)c2cc3cc(S(=O)(=O)N4CC(C)CC(C)C4)ccc3o2)C1 (stereo not drawn) [compound 29] | < 5 µM | 
30 | CNC(=O)c1[nH]c2ccc(S(=O)(=O)N3CCC(C)CC3)cc2c1C [compound 30] | 5 to 20 µM | 
31 | CCN(CC)C(=O)c1cc2cc(S(=O)(=O)N3CC(C)CC(C)C3)ccc2o1 (stereo not drawn) [compound 31] | < 5 µM | 
32 | Cc1c(C(=O)NCC2CCCO2)oc2ccc(S(=O)(=O)N3CC(C)CC(C)C3)cc12 (stereo not drawn) [compound 32] | < 5 µM | 
33 | Cc1c(C(=O)N2CC(C)CC(C)C2)oc2ccc(S(=O)(=O)N3CCC(C)CC3)cc12 (stereo not drawn) [compound 33] | 5 to 20 µM | 
34 | O=C(NCc1ccccc1)c1cc2cc(S(=O)(=O)N3CCCCCC3)ccc2o1 [compound 34] | < 5 µM | 
35 | Cc1c(C(=O)NC2CC2)oc2ccc(S(=O)(=O)N3CCC(F)(F)CC3)cc12 [compound 35] | 5 to 20 µM | 
36 | CC1CCN(S(=O)(=O)c2ccc3[nH]c(C(=O)NCc4ccccc4)cc3c2)CC1 [compound 36] | < 5 µM | 
37 | CNC(=O)c1cc2cc(S(=O)(=O)N3CC(C)CC(C)C3)ccc2[nH]1 (stereo not drawn) [compound 37] | < 5 µM | 
38 | Cc1c(C(=O)NCC2CCOCC2)oc2ccc(S(=O)(=O)N3CCCCCC3)cc12 [compound 38] | 5 to 20 µM | 
39 | Cc1c(C(=O)NC2CCC(C)CC2)oc2ccc(S(=O)(=O)N3CCOCC3)cc12 (stereo not drawn) [compound 39] | < 20 µM | 
40 | O=C(NCCCc1ccccc1)c1cc2cc(S(=O)(=O)N3CCCCCC3)ccc2o1 [compound 40] | < 5 µM | 

Row | SMILES | IC50 [1] | IC50
41 | O=C(NC1CCCC1)c1cc2cc(S(=O)(=O)N3CCCCCC3)ccc2[nH]1 [compound 41] | 5 to 20 µM | 
42 | Cc1c(C(=O)N2CCCCC2C)oc2ccc(S(=O)(=O)N3CCC(C)CC3)cc12 (stereo not drawn) [compound 42] | < 5 µM | 
43 | CN(Cc1ccccc1)C(=O)c1cc2cc(S(=O)(=O)N3CCCCCC3)ccc2o1 [compound 43] | < 5 µM | 
44 | Cc1c(C(=O)NCc2ccccc2)oc2ccc(S(=O)(=O)N3CCCCCC3)cc12 [compound 44] | 5 to 20 µM | 
45 | Cc1c(C(=O)N2CCCCCC2)oc2ccc(S(=O)(=O)N3CCCCCC3)cc12 [compound 45] | < 5 µM | 
46 | CCN(CC)C(=O)c1cc2cc(S(=O)(=O)N3CCCCCC3)ccc2[nH]1 [compound 46] | < 5 µM | 
47 | Cc1c(C(=O)NC(C)C)oc2ccc(S(=O)(=O)N3CCCC(C)C3)cc12 (stereo not drawn) [compound 47] | 5 to 20 µM | 
48 | O=C(NCCc1ccccc1)c1cc2cc(S(=O)(=O)N3CCCCCC3)ccc2o1 [compound 48] | < 5 µM | 
49 | Cc1c(C(=O)NCCCc2ccccc2)[nH]c2ccc(S(=O)(=O)N3CC(C)CC(C)C3)cc12 (stereo not drawn) [compound 49] | < 5 µM | 
50 | Cc1c(C(=O)NC2CC2)oc2ccc(S(=O)(=O)Nc3ccccn3)cc12 [compound 50] | < 20 µM | 
51 | CCN(CC)S(=O)(=O)c1ccc2oc(C(=O)NC)c(C)c2c1 [compound 51] | < 20 µM | 
52 | CC(C)N(C(=O)c1cc2cc(S(=O)(=O)N3CCCCCC3)ccc2[nH]1)C(C)C [compound 52] | 5 to 20 µM | 
53 | CC1CC(C)CN(S(=O)(=O)c2ccc3oc(C(=O)NCCCc4ccccc4)cc3c2)C1 (stereo not drawn) [compound 53] | < 5 µM | 
54 | CC1CCN(S(=O)(=O)c2ccc3[nH]c(C(=O)N4CCC5(CC4)OCCO5)cc3c2)CC1 [compound 54] |  | 5 to 20 µM
55 | CC1CCCN(C(=O)c2cc3cc(S(=O)(=O)N4CCCCCC4)ccc3[nH]2)C1 (stereo not drawn) [compound 55] | < 5 µM | 
56 | Cc1c(C(=O)NCCCc2ccccc2)oc2ccc(S(=O)(=O)N3CC(C)CC(C)C3)cc12 (stereo not drawn) [compound 56] | < 5 µM | 
57 | Cc1c(C(=O)NC(C)C2=CCCCC2)oc2ccc(S(=O)(=O)N3CCCCC3)cc12 (stereo not drawn) [compound 57] | 5 to 20 µM | 
58 | Cc1c(C(=O)N2CCCC(C)C2)oc2ccc(S(=O)(=O)N3CCC(C)CC3)cc12 (stereo not drawn) [compound 58] | 5 to 20 µM | 
59 | Cc1c(C(=O)N2CCCCC2C)oc2ccc(S(=O)(=O)N3CCCCC3)cc12 (stereo not drawn) [compound 59] | 5 to 20 µM | 
60 | Cc1c(C(=O)N2CC(C)CC(C)C2)[nH]c2ccc(S(=O)(=O)N3CC(C)CC(C)C3)cc12 (stereo not drawn) [compound 60] | < 5 µM | 

Source: patent US8211935B2, “Heterocyclic derivatives for modulation of calcium channels” (Vertex Pharmaceuticals Incorporated, priority 2004, dated 2012)
